Here are results for 22 molecules from patent US9365522B2, “Pyrazole amide derivative” (AMGEN INC., priority 2015, dated 2016).

Where only a bound is given, the exact number is not on record here.

The target of the assay is T1, ligand binding domain of human ROR gamma (Homo sapiens, UniProt P51449).
T1 construct: NM_001001523; expressed in transfected cells; host or cells: HEK293T
T1 sequence (P51449 247-497 isoform P51449-2): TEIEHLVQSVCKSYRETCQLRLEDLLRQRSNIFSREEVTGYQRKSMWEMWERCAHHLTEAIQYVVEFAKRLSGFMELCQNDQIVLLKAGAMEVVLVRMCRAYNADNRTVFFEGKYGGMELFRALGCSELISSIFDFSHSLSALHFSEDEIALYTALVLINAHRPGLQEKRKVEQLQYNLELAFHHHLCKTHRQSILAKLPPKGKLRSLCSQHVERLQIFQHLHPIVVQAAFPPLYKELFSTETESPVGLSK
The experiment in a line: ROR gamma reporter gene assay (GAL4-RORγ LBD luciferase, Dual-Glo). It counts as cell-based. The settings on record: HEK293T cells transfected with pM-ROR gamma, 8 concentrations 3.5 nM to 10.5 μM, 24 h incubation; read-out: result (pIC50, inhibition of RORγ transcriptional activity) (converted). A digest of the protocol:
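Transient GAL4-RORγ LBD (aa 247-497) / 5×UAS-luc / pRL-CMV cotransfection in HEK293T, charcoal-stripped 10% FBS. 8-pt dose, 3.5 nM–10.5 μM, 0.075% DMSO final. 24 h, 37 °C, 5% CO2. Dual-Glo firefly/renilla readout; pIC50 from curve fit.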
A general note: In a reporter assay the amount or activity of a reporter protein is the signal.
Regarding `C[C@H](N(CC(=O)c1c(Cl)cncc1Cl)C(=O)c1cnn([C@H]2CC[C@H](C(=O)O)CC2)c1C(F)(F)F)C(C)(C)C` [Example 114, trans-4-(4-((2-(3,5-dichloropyridin-4-yl)-2-oxoethyl)-((2S)-3,3-dimethylbutan-2-yl)carbamoyl)-5-(trifluoromethyl)pyrazol-1-yl)cyclohexane-1-carboxylic acid], the IC50 was 2.29e+06 pM.
Consider `C[C@@H](N(CC(=O)c1c(Cl)cncc1Cl)C(=O)c1cnn([C@H]2CC[C@H](C(=O)O)CC2)c1C(F)(F)F)C(C)(C)C` [Example 115, trans-4-(4-((2-(3,5-dichloropyridin-4-yl)-2-oxoethyl)-((2R)-3,3-dimethylbutan-2-yl)carbamoyl)-5-(trifluoromethyl)pyrazol-1-yl)cyclohexane-1-carboxylic acid], for which the IC50 was 158000 pM.
Turning to `N[C@]1(C(=O)O)CC[C@@H](n2ncc(C(=O)N(CC(=O)c3c(Cl)cncc3Cl)Cc3ccc(F)cc3)c2C(F)(F)F)CC1` [Example 116, cis-4-(4-((2-(3,5-dichloropyridin-4-yl)-2-oxoethyl)-((4-fluorophenyl)methyl)carbamoyl)-5-(trifluoromethyl)pyrazol-1-yl)-1-aminocyclohexane-1-carboxylic acid], the IC50 is above 1e+07 pM.
For the molecule `N[C@]1(C(=O)O)CC[C@H](n2ncc(C(=O)N(CC(=O)c3c(Cl)cncc3Cl)Cc3ccc(F)cc3)c2C(F)(F)F)CC1` [Example 117, cis-4-(4-((2-(3,5-dichloropyridin-4-yl)-2-oxoethyl)-((4-fluorophenyl)methyl)carbamoyl)-5-(trifluoromethyl)pyrazol-1-yl)-1-aminocyclohexane-1-carboxylic acid], the IC50 is 3.55e+06 pM.
For `CC(C)(CN(Cc1cc(F)cc(F)c1)C(=O)c1cnn([C@H]2CC[C@H](C(=O)O)CC2)c1C(F)(F)F)c1c(Cl)cccc1Cl` [Example 118, trans-4-(4-((2-(2,6-dichlorophenyl)-2-methylpropyl)-((3,5-difluorophenyl)methyl)carbamoyl)-5-(trifluoromethyl)pyrazol-1-yl)cyclohexane-1-carboxylic acid], the IC50 was 1.74e+06 pM.
To `COc1cncc(OC)c1C(=O)CN(Cc1cc(F)cc(F)c1)C(=O)c1cnn([C@H]2CC[C@H](C(=O)O)CC2)c1C(F)(F)F` [Example 119, trans-4-(4-((3,5-difluorophenyl)methyl-(2-(3,5-dimethoxypyridin-4-yl)-2-oxoethyl)carbamoyl)-5-(trifluoromethyl)pyrazol-1-yl)cyclohexane-1-carboxylic acid] belongs 1.51e+06 pM; to `O=C(CN(CC1CCCCN1)C(=O)c1cnn([C@H]2CC[C@H](C(=O)O)CC2)c1C(F)(F)F)c1c(Cl)cncc1Cl` (stereo partly drawn) [Example 121, trans-4-(4-((2-(3,5-dichloropyridin-4-yl)-2-oxoethyl)-(piperidin-2-ylmethyl)carbamoyl)-5-(trifluoromethyl)pyrazol-1-yl)cyclohexane-1-carboxylic acid], above 1e+07 pM.
For the molecule `Cc1cc(=O)[nH]c(C)c1C(=O)CN(Cc1cc(F)cc(F)c1)C(=O)c1cnn([C@H]2CC[C@H](C(=O)O)CC2)c1C(F)(F)F` [Example 122, trans-4-(4-((3,5-difluorophenyl)methyl-(2-(2,4-dimethyl-6-oxo-1H-pyridin-3-yl)-2-oxoethyl)carbamoyl)-5-(trifluoromethyl)pyrazol-1-yl)cyclohexane-1-carboxylic acid], the IC50 is above 1e+07 pM.
Then `O=C(CN(CC12CC3CC(CC(C3)C1)C2)C(=O)c1cnn([C@H]2CC[C@H](C(=O)O)CC2)c1C(F)(F)F)c1c(Cl)cncc1Cl` [Example 123, trans-4-(4-(1-adamantylmethyl-(2-(3,5-dichloropyridin-4-yl)-2-oxoethyl)carbamoyl)-5-(trifluoromethyl)pyrazol-1-yl)cyclohexane-1-carboxylic acid], with 4900 pM; and `CC(C)(C)[C@H]1C[C@H](CN(CC(=O)c2c(Cl)cncc2Cl)C(=O)c2cnn([C@H]3CC[C@H](C(=O)O)CC3)c2C(F)(F)F)C1` [Example 125, trans-4-(4-((3-tert-butylcyclobutyl)methyl-(2-(3,5-dichloropyridin-4-yl)-2-oxoethyl)carbamoyl)-5-(trifluoromethyl)pyrazol-1-yl)cyclohexane-1-carboxylic acid], with 324000 pM.
Then `CC(C)(C)[C@H]1C[C@@H](CN(CC(=O)c2c(Cl)cncc2Cl)C(=O)c2cnn([C@H]3CC[C@H](C(=O)O)CC3)c2C(F)(F)F)C1` [Example 126, trans-4-(4-((3-tert-butylcyclobutyl)methyl-(2-(3,5-dichloropyridin-4-yl)-2-oxoethyl)carbamoyl)-5-(trifluoromethyl)pyrazol-1-yl)cyclohexane-1-carboxylic acid], with 912000 pM; and `O=C(CN(Cc1cc(F)cc(F)c1)C(=O)c1cnn([C@H]2CC[C@H](C(=O)O)CC2)c1C(F)(F)F)c1c(Cl)cc(OC(F)(F)F)cc1Cl` [Example 127, trans-4-(4-((2-(2,6-dichloro-4-(trifluoromethoxy)phenyl)-2-oxoethyl)-((3,5-difluorophenyl)methyl)carbamoyl)-5-(trifluoromethyl)pyrazol-1-yl)cyclohexane-1-carboxylic acid], with 2.04e+06 pM.
To `N#C[C@]1(C(=O)O)CC[C@@H](n2ncc(C(=O)N(CC(=O)c3c(Cl)cncc3Cl)Cc3ccc(F)cc3)c2C(F)(F)F)CC1` [Example 128, trans-4-(4-((2-(3,5-dichloropyridin-4-yl)-2-oxoethyl)-((4-fluorophenyl)methyl)carbamoyl)-5-(trifluoromethyl)pyrazol-1-yl)-1-cyanocyclohexane-1-carboxylic acid] belongs above 1e+07 pM; to `N#C[C@]1(C(=O)O)CC[C@H](n2ncc(C(=O)N(CC(=O)c3c(Cl)cncc3Cl)Cc3ccc(F)cc3)c2C(F)(F)F)CC1` [Example 129, trans-4-(4-((2-(3,5-dichloropyridin-4-yl)-2-oxoethyl)-((4-fluorophenyl)methyl)carbamoyl)-5-(trifluoromethyl)pyrazol-1-yl)-1-cyanocyclohexane-1-carboxylic acid], 8.71e+06 pM; to `CC1(C)CCC(CN(CC(=O)c2c(Cl)cncc2Cl)C(=O)c2cnn([C@H]3CC[C@H](C(=O)O)CC3)c2C(F)(F)F)CO1` (stereo partly shown) [Example 130], 174000 pM.
As to `CC(C)(C)[C@H]1C[C@@H](N(CC(=O)c2c(Cl)cncc2Cl)C(=O)c2cnn([C@H]3CC[C@H](C(=O)O)CC3)c2C(F)(F)F)C1` [Example 131, trans-4-(4-((3-tert-butylcyclobutyl)-(2-(3,5-dichloropyridin-4-yl)-2-oxoethyl)carbamoyl)-5-(trifluoromethyl)pyrazol-1-yl)cyclohexane-1-carboxylic acid], the IC50 was 83200 pM.
In the case of `CC(C)(C)[C@H]1C[C@H](N(CC(=O)c2c(Cl)cncc2Cl)C(=O)c2cnn([C@H]3CC[C@H](C(=O)O)CC3)c2C(F)(F)F)C1` [Example 132, trans-4-(4-((3-tert-butylcyclobutyl)-(2-(3,5-dichloropyridin-4-yl)-2-oxoethyl)carbamoyl)-5-(trifluoromethyl)pyrazol-1-yl)cyclohexane-1-carboxylic acid], the IC50 is 66100 pM.
Then `Cc1ccnc(C)c1C(=O)CN(Cc1cc(F)cc(F)c1)C(=O)c1cnn([C@H]2CC[C@H](C(=O)O)CC2)c1C(F)(F)F` [Example 134, trans-4-(4-((3,5-difiuorophenyl)methyl-(2-(2,4-dimethylpyridin-3-yl)-2-oxoethyl)carbamoyl)-5-(trifluoromethyl)pyrazol-1-yl)cyclohexane-1-carboxylic acid], with 245000 pM; and `O=C(CN(Cc1cc(F)cc(F)c1)C(=O)c1cnn([C@H]2CC[C@H](C(=O)O)CC2)c1Cl)c1c(Cl)cncc1Cl` [Example 135, trans-4-(5-chloro-4-((2-(3,5-dichloropyridin-4-yl)-2-oxoethyl)-((3,5-difluorophenyl)methyl)carbamoyl)pyrazol-1-yl)cyclohexane-1-carboxylic acid], with 3.09e+06 pM; and `O=C(CN(Cc1cc(F)cc(F)c1)C(=O)c1cnn([C@H]2CC[C@H](C(=O)O)CC2)c1C(F)(F)F)c1ccc(C(F)(F)F)cc1Cl` [Example 136, trans-4-(4-((2-(2-chloro-4-(trifluoromethyl)phenyl)-2-oxoethyl)-((3,5-difluorophenyl)methyl)carbamoyl)-5-(trifluoromethyl)pyrazol-1-yl)cyclohexane-1-carboxylic acid], with 83200 pM.
Turning to `Cc1cc(Cl)c(C(=O)CN(Cc2cc(F)cc(F)c2)C(=O)c2cnn([C@H]3CC[C@H](C(=O)O)CC3)c2C(F)(F)F)c(Cl)c1` [Example 137, trans-4-(4-((2-(2,6-dichloro-4-methylphenyl)-2-oxoethyl)-((3,5-difluorophenyl)methyl)carbamoyl)-5-(trifluoromethyl)pyrazol-1-yl)cyclohexane-1-carboxylic acid], the IC50 was 4790 pM.
For the molecule `C[C@]1(C(=O)O)CC[C@H](n2ncc(C(=O)N(Cc3cc(F)cc(F)c3)C[C@H](F)c3c(Cl)cccc3Cl)c2C(F)(F)F)CC1` [Example 138, trans-4-(4-(((2R)-2-(2,6-dichlorophenyl)-2-fluoroethyl)-((3,5-difluorophenyl)methyl)carbamoyl)-5-(trifluoromethyl)pyrazol-1-yl)-1-methylcyclohexane-1-carboxylic acid], the IC50 was 7240 pM.
